Non-standard residues stand in square brackets, D forms with d. Residues, ends and D or L forms follow the SMILES beside them. *: point of attachment. Ala(7-MeO-coumarin-4-yl) = COc1ccc2c(C[C@H](N)C(=O)O)cc(=O)oc2c1; X1 = N[C@@H](Cc1ccc(O)cc1)C(=S)N1CCC[C@H]1C(=O)*

The subject of one series is DPP-4 (dipeptidyl Peptidase IV human, recombinant, expressed in Sf9 cells). The series is described as follows: 2.31 ng/μL DPP-4 in DPBS buffer and pH 7.6 (PP-based probes also 4.62 ng/μL). The following applies: 27°C, up to 400 min.
With APLEPμ, the cleaved bond result is on record as “P-L”. With A^SPLEPμ, the cleaved bond entry was “P-L”. As for YPIKPμ, the cleaved bond result was “P-I”. Take YPLKPμ: the cleaved bond result is recorded as “P-L3”. As to YPSKPμ, the cleaved bond entry is on record as “P-S”. The same measure, in the same setting: then Y^SPIKPμ, with “P-I”; and Y^SPLKPμ, with “P-L3”. For the molecule Y^SPSKPμ, the cleaved bond result is reported as “P-S”.

The target in another series is T1, DPP-4 (Homo sapiens, UniProt P27487).
T1 construct: purchased Sigma Aldrich D3446
T1 sequence (P27487 whole entry): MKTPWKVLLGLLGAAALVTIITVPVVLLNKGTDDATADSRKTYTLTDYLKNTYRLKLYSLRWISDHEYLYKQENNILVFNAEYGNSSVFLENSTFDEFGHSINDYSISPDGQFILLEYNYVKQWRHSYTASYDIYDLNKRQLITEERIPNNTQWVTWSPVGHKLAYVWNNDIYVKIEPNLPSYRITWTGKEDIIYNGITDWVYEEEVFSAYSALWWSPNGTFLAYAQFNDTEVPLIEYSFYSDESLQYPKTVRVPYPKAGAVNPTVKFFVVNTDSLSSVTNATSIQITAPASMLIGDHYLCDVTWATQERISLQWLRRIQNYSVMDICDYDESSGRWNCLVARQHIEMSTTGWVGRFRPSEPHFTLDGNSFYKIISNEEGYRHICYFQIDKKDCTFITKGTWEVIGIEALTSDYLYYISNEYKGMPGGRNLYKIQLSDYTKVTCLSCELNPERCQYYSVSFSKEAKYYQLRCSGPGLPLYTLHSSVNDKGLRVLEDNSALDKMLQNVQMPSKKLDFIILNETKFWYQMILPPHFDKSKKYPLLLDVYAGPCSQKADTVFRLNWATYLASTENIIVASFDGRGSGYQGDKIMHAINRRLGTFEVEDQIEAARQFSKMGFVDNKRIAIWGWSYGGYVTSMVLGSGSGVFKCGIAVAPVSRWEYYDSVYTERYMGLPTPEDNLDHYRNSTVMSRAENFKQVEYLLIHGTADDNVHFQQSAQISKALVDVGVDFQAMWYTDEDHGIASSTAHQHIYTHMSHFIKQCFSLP
The series is described as follows: DPP-4 proteolysis steady state fluorescence assay with μ-tagged probes. It counts as in vitro ADME. The following applies: 5 μM peptide, 2.31 ng/μL DPP-4, DPBS pH 7.6, 27 °C, fluorescence λex 325 nm / λem 390 nm, average of three replicates. As to the method:
Phan et al. Supporting Information
4. DPP-4 Proteolysis Assays (Steady State Assays)
A 19 μL solution of 5.3 μM peptide was incubated in the absence or presence of 1 μL of 46.2 ng/μL DPP-4 (Sigma Aldrich, D3446), to final concentrations of 5 μM peptide and 2.31 ng/μL […]
For the PP-based probes (APLEPμ & ASPLEPμ), […]
additional assays were conducted at higher DPP-4 concentration of 4.62 ng/μL to improve the cleavage rate and kinetics of the thioamide probes (Figure S17B). For the μ-tagged probes, the […]
nm on the Tecan M1000 plate reader. Three replicates were performed for each assay to ensure reproducibility. These primary data are shown. At the end of the plate-reader assay, the sample was diluted to a final volume of 170 μL for validation with HPLC. MALDI MS & HPLC analysis of peptide proteolysis by DPP-4 were also done to confirm the cleavage sites, indicated by the slashes (e.g. YP/SKPµ) as summarized in Figures S14-S17, and Tables S4-S7. A Phenomenex Luna® Omega 5 µm PS C18 100 Å analytical HPLC column was used to analyze all samples using the same gradient of 20-25 % B over 35 minutes (Solvent A: 0.1% TFA in Milli-Q water; Solvent B: 0.1% TFA in acetonitrile).
For the molecule `COc1ccc2c(C[C@H](NC(=O)[C@@H]3CCCN3C(=O)[C@H](CCCCN)NC(=O)[C@H](CO)NC(=O)[C@@H]3CCCN3C(=S)[C@@H](N)Cc3ccc(O)cc3)C(=O)O)cc(=O)oc2c1` [Y^sPSKPμ] (X1-SKP[Ala(7-MeO-coumarin-4-yl)]-OH), the “t1/2 of cleavage by DPP-4 (μ-labeled probe)” value is listed as 26 min.

Still in this series, the particulars now being: 5 μM peptide, 2.31 ng/μL DPP-4, DPBS pH 7.6, 27 °C, fluorescence λex 325 nm / λem 390 nm, three replicates.
For `CC[C@H](C)[C@H](NC(=O)[C@@H]1CCCN1C(=S)[C@@H](N)Cc1ccc(O)cc1)C(=O)N[C@@H](CCCCN)C(=O)N1CCC[C@H]1C(=O)N[C@@H](Cc1cc(=O)oc2cc(OC)ccc12)C(=O)O` [Y^SPIKPμ] (X1-IKP[Ala(7-MeO-coumarin-4-yl)]-OH), the “cleaved fold slower than the native NPY1–5 probe Y^SPSKPμ” value is listed as 3 fold. As to `COc1ccc2c(C[C@H](NC(=O)[C@@H]3CCCN3C(=O)[C@H](CCCCN)NC(=O)[C@H](CC(C)C)NC(=O)[C@@H]3CCCN3C(=S)[C@@H](N)Cc3ccc(O)cc3)C(=O)O)cc(=O)oc2c1` [Y^SPLKPμ] (X1-LKP[Ala(7-MeO-coumarin-4-yl)]-OH), the “cleaved fold slower than the native NPY1–5 probe Y^SPSKPμ” value came out at 2 fold.
